Laboratory results reported in patent publication US20230233576A1, “ECLITASERTIB FOR USE IN TREATING CONDITIONS INVOLVING SYSTEMIC HYPERINFLAMMATORY RESPONSE” (priority 2020, published 2023).
Several values for one entry are separate records, joined by “and”; a condition that tells them apart may be missing. Equal values may be shown once.

Key:
[1] = system: adult participants hospitalized for severe COVID-19; test: Phase 1b severe COVID-19 study: vital signs abnormalities (PCSA); assay type: in vivo, human; settings: 600 mg, TEAE period
Experimental: (§1) Physical examination including lung auscultation and assessment of consciousness, vital sign, electrocardiogram (ECG) parameters were measured per protocol.
(§2) For laboratory parameters (hematology, clinical chemistry, and urinalysis), vital signs, and ECG, incidences of potentially clinically significant abnormality (PCSA) values, actual values and change from baseline were summarized by treatment group.
(§3) For all laboratory, vital signs and ECG parameters, raw data and change from baseline were summarized in descriptive statistics by treatment group and scheduled time of measurement, with the exception of AST, ALT and alkaline phosphatase: instead of summarizing data in descriptive statistics, participants' profiles were presented through graphics by treatment group and with a color code to identify sites. The reason was that blood samples were processed by local laboratories with different normal ranges. For the rest of clinical laboratory these parameters it is reasonable to pool data as they are standard procedure and no significant differences in normal ranges were expected.

[2] = system: adult participants hospitalized for severe COVID-19; test: Phase 1b severe COVID-19 study: ECG abnormalities (PCSA); assay type: in vivo, human; settings: for HR (bpm) Delta (change from baseline) / HR (bpm) Value / PR % change from baseline / PR (ms) Value / QRS % change from baseline / QRS (ms) Value / QT (ms) Delta (change from baseline) / QT (ms) Value / QTcB (ms) Delta (change from baseline) / QTcB (ms) Value / QTcF (ms) Delta (change from baseline) / QTcF (ms) Value: Discharge Before Day 15
Experimental: as §1, §2, §3

[3] = non-human primate toxicology studies; assay type: in vivo; settings: up to 29 days and up to 500 mg/kg/day
SIRS = test: acute mouse model of SIRS; assay type: in vivo
Source text: The RIPK1 Inhibitor was studied in an acute mouse model of SIRS. […] There is also rationale that vascular permeability and endothelial dysfunction contribute to SIRS/shock and lethality. […] Additional clinical evidence for the role of RIPK1 in driving systemic inflammation comes from evidence in a rare population of patients that have a mutation in RIPK1 that blocks caspase-mediated cleavage and leads to hyperactivation of this kinase. These patients have periodic fevers with coinciding elevations of cytokines including IL-6 and elevated levels of pRIPK1 in their PBMCs. Patient-derived cells are responsive to RIPK1 kinase inhibition, and some patients are responsive to anti-IL-6 therapy.

[4] = system: C-reactive protein (CRP) levels; test: Phase 1b severe COVID-19 study: CRP level; assay type: in vivo, human; settings: 600 mg; for CRP raw data Mean / CRP relative change from baseline Mean / CRP raw data Median / CRP relative change from baseline Median: observed; for CRP raw data Mean / CRP relative change from baseline Mean: no imputation
[5] = 600 mg (N = 47), TEAE period, safety population
[6] = individual participant 84.0 kg, 600 mg
[7] = individual participant 98.0 kg, 600 mg
[8] = individual participant 114.0 kg, 600 mg
[9] = Day 03, MMRM, LOCF, Efficacy population
[10] = Day 05, MMRM, LOCF, Efficacy population
[11] = Day 07, MMRM, LOCF, Efficacy population
[12] = Day 15, MMRM, LOCF, Efficacy population

## CN1C(=O)[C@@H](NC(=O)c2nnc(Cc3ccccc3)[nH]2)COc2cccnc21 [RIPK1 Inhibitor, (S)-5-benzyl-N-(5-methyl-4-oxo-2,3,4,5-tetrahydropyrido[3,2-b][1,4]oxazepin-3-yl)-4H-1,2,4-triazole-3-carboxamide]
[1]
  participants with systolic blood pressure≤95 mmHg and decrease from baseline≥20 mmHg: 4 participants
[1]; Safety population
  PCSA Diastolic Blood Pressure ≤45 mmHg and decrease from baseline ≥10 mmHg: 1/47
  PCSA Diastolic Blood Pressure ≥110 mmHg and increase from baseline ≥10 mmHg: 0/47
  PCSA Heart Rate ≤50 beats/min and decrease from baseline ≥20 beats/min: 0/47
  PCSA Heart Rate ≥120 beats/min and increase from baseline 20 beats/min: 1/47
  PCSA Systolic Blood Pressure ≤95 mmHg and decrease from baseline ≥20 mmHg: 4/47
  PCSA Systolic Blood Pressure ≥160 mmHg and increase from baseline ≥20 mmHg: 4/47
[2]; [5]
  ECG PCSA Heart Rate <40 beats/min: 0/44
  ECG PCSA Heart Rate <50 beats/min: 1/44
  ECG PCSA Heart Rate <50 beats/min and decrease from baseline ≥20 beats/min: 0/44
  ECG PCSA Heart Rate >100 beats/min: 3/44
  ECG PCSA Heart Rate >100 beats/min and increase from baseline ≥20 beats/min: 3/44
  ECG PCSA Heart Rate >120 beats/min: 1/44
  ECG PCSA Heart Rate >120 beats/min and increase from baseline 20 beats/min: 1/44
  ECG PCSA Heart rate>90 beats/min: 6/44
  ECG PCSA PR Interval >200 msec: 1/43
  ECG PCSA PR Interval >200 msec and increase from baseline ≥25%: 0/43
  ECG PCSA PR Interval >220 msec: 1/43
  ECG PCSA PR Interval >220 msec and increase from baseline ≥25%: 0/43
  ECG PCSA PR Interval >240 msec: 0/43
  ECG PCSA QRS Interval >110 msec: 6/44
  ECG PCSA QRS Interval >110 msec and increase from baseline ≥25%: 3/44
  ECG PCSA QRS Interval >120 msec: 3/44
  ECG PCSA QRS Interval >120 msec and increase from baseline ≥25%: 2/44
  ECG PCSA QT Interval >500 msec: 0/44
  ECG PCSA QTc Bazett - change from baseline: Increase from baseline >60 msec: 5/39
  ECG PCSA QTc Bazett - change from baseline: Increase from baseline ]30-60] msec: 2/39
  ECG PCSA QTc Bazett >450 msec: 5/44
  ECG PCSA QTc Bazett >500 msec: 3/44
  ECG PCSA QTc Bazett>480 msec: 3/44
  ECG PCSA QTc Fridericia - change from baseline: Increase from baseline >60 msec: 2/25
  ECG PCSA QTc Fridericia - change from baseline: Increase from baseline ]30-60] msec: 2/25
  ECG PCSA QTc Fridericia >450 msec: 1/29
  ECG PCSA QTc Fridericia >480 msec: 1/29
  ECG PCSA QTc Fridericia >500 msec: 0/29
  ECG PCSA heart rate>90 beats/min and increase from baseline≥20 beats/min: 5/44
[2]; 600 mg, TEAE period
  ECG PCSA Heart rate>90 beats/min: 6 participants
  ECG PCSA QRS interval>110 ms: 6 participants
  ECG PCSA QTc Bazett (QTcB)>450 ms: 5 participants
  ECG PCSA QTc Bazett change from baseline>60 ms: 5 participants
  ECG PCSA QTc Bazett>480 msec: 3 participants
  ECG PCSA QTc Bazett>500 ms: 3 participants
  ECG PCSA heart rate>90 beats/min and increase from baseline≥20 beats/min: 5 participants
[2]; [6]
  HR (bpm) Delta (change from baseline): −5 bpm
  HR (bpm) Value: 73 bpm
  PR % change from baseline: 0.0%
  PR (ms) Value: 120 ms
  QRS % change from baseline: 5.0%
  QRS (ms) Value: 84 ms
  QT (ms) Delta (change from baseline): 0 ms
  QT (ms) Value: 380 ms
  QTcB (ms) Delta (change from baseline): 69 ++ ms
  QTcB (ms) Value: 449 ms
  QTcF (ms) Delta (change from baseline): -34 ms
  QTcF (ms) Value: 380 ms
[2]; [7]
  HR (bpm) Delta (change from baseline): −1 bpm
  HR (bpm) Value: 81 bpm
  PR % change from baseline: 12.3%
  PR (ms) Value: 164 ms
  QRS % change from baseline: −14%
  QRS (ms) Value: 95 ms
  QT (ms) Delta (change from baseline): -3 ms
  QT (ms) Value: 371 ms
  QTcB (ms) Delta (change from baseline): 84 ++ ms
  QTcB (ms) Value: 431 ms
  QTcF (ms) Delta (change from baseline): -5 ms
  QTcF (ms) Value: 410 ms
[2]; [8]
  HR (bpm) Delta (change from baseline): 38 + bpm
  HR (bpm) Value: 96 + bpm
  PR % change from baseline: −11%
  PR (ms) Value: 160 ms
  QRS % change from baseline: −20%
  QRS (ms) Value: 80 ms
  QT (ms) Delta (change from baseline): -30 ms
  QT (ms) Value: 360 ms
  QTcB (ms) Delta (change from baseline): 72 ++ ms
  QTcB (ms) Value: 455 + ms
  QTcF (ms) Delta (change from baseline): 36 + ms
  QTcF (ms) Value: 421 ms
[3]
  safety concerns in toxicology studies: did not raise any safety concerns
SIRS
  SIRS induction: dose-dependently blocked and at the highest dose completely abolished
[4]; [9]
  Percent change from baseline in CRP, point estimate: −12.85%
  Relative change from baseline in CRP, point estimate (geometric means): 0.87
[4]; Day 3, Efficacy population
  CRP raw data Mean: 59.4 mg/L
  CRP relative change from baseline Mean: 0.58 and 0.581
  CRP raw data Median: 44.4 mg/L
  CRP relative change from baseline Median: 0.384
[4]; Day 3, with imputation of missing data
  relative change from baseline in CRP, RIPK1 Inhibitor versus placebo ratio: 0.91
[4]; Day 3, without imputation of missing data
  relative change from baseline in CRP, RIPK1 Inhibitor versus placebo ratio: 0.92
[4]; [10]
  Percent change from baseline in CRP, point estimate: −51.43%
  Relative change from baseline in CRP, point estimate (geometric means): 0.49
[4]; Day 5, Efficacy population
  CRP raw data Mean: 37.7 mg/L
  CRP relative change from baseline Mean: 0.37 and 0.368
  CRP raw data Median: 24.2 mg/L
  CRP relative change from baseline Median: 0.195
[4]; Day 5, with imputation of missing data
  relative change from baseline in CRP, RIPK1 Inhibitor versus placebo ratio: 0.70
[4]; Day 5, without imputation of missing data
  relative change from baseline in CRP, RIPK1 Inhibitor versus placebo ratio: 0.73
[4]; Day 7, LOCF imputation
  mean of relative change from baseline in CRP: 0.315
  median of relative change from baseline in CRP: 0.165
[4]; [11]
  Percent change from baseline in CRP, point estimate: −64.81%
  Relative change from baseline in CRP, point estimate (geometric means): 0.35
[4]; Day 7, MMRM, LOCF, Efficacy population, below 1 = larger decrease than placebo
  ratio of the adjusted relative change from baseline in CRP, RIPK1 Inhibitor vs placebo (point estimate): 0.85
[4]; Day 7, missing values imputed with LOCF
  observed mean of CRP: 28.1 mg/L
[4]; Day 7, Efficacy population
  CRP raw data Mean: 24.2 mg/L
  CRP relative change from baseline Mean: 0.289
  CRP raw data Median: 14.0 mg/L
  CRP relative change from baseline Median: 0.119
[4]; [12]
  Percent change from baseline in CRP, point estimate: −71.76%
  Relative change from baseline in CRP, point estimate (geometric means): 0.28
[4]; Day 15, Efficacy population
  CRP raw data Mean: 29.2 mg/L
  CRP relative change from baseline Mean: 0.380
  CRP raw data Median: 9.6 mg/L
  CRP relative change from baseline Median: 0.092
[4]; Kaplan-Meier, Efficacy population
  median time for 50% decrease in CRP level relative to baseline: 3 days
[4]; by Day 3
  participants with 50% decrease from baseline in CRP: 69.2%
